In US12564622B2, “Preventing cytokine release syndrome” (priority 2017, dated 2026):
“And” between values parts separate entries of the source, which are not always exact repeats. Equal values may be shown once.

Experiments:
[1] = tested on: co-culture of hCART19 and Raji cells; experiment: In vitro co-culture of Raji and hCART19 cells; assay type: cell-based, human; settings: co-culture stimulated with epinephrine 15 ng/ml; CHX 10 μg/ml
Description: Human CD19scFv-CD28-4-1BB-CD3ζ CAR-T cells (PM-CAR1003) were purchased from Promab Biotechnologies and maintained less than 7 days in AIM-V medium (GIBCO) supplemented with 300 IU/ml of hIL2 (Peprotech), 5% FBS and antibiotics (Car-T medium).

LPS-injected BALB/c mice = assay type: in vivo, mouse (BALB/c); settings: for disease course (mortality, catecholamines, IL-6, TNF-α, MIP-2, KC) versus LPS only: catecholamine by subcutaneous osmotic pump plus sublethal dose of LPS; for mortality: LPS-treated mice, adrenoceptor blockers (α1, α2, β1, β2)
Experimental: LPS from Escherichia coli 0111:B4 was formulated as a 10 mg/ml solution in water and stored in −80° C. LPS was injected intraperitoneally at a dose of 3.5 mg/kg. […] Human ANP (Sigma) was dissolved in saline, loaded in mini-osmotic pumps (ALZET) with a release rate of 12 μg/day and implanted subcutaneously in the back of mice 12 hours before the LPS injection. Mice implanted with pumps loaded with saline served as controls. […] […] The control groups were injected with PBS. […] Hydration of mice was supported by daily subcutaneous injection of 0.5 ml saline.
LPS from Escherichia coli 0111:B4 was formulated as a 10 mg/ml solution in water and stored in −80° C. In Balb/C mice, LPS was injected intraperitoneally at a lethal dose of 3.5 mg/kg. […] In experiments with catecholamine pumps, a sublethal dose with 15-35% death rate was optimized in Balb/C mice. In TH+/+ and TH^ΔLysM mice with C57BL/6 background, a lethal dose was optimized at 5 mg/kg. Human ANP (Sigma) was dissolved in saline, loaded in mini-osmotic pumps (ALZET) with a release rate of 12 μg/day and implanted subcutaneously in the back of mice 12 hours before the LPS injection. Mice implanted with pumps loaded with saline served as controls. Metyrosine was freshly dissolved in PBS and injected IP at the indicated doses for three days prior to the LPS treatment. One hour before the LPS injection, metyrosine was injected into the lower abdomen contralateral to the side of LPS injection. The control groups were injected with PBS. For the following 3 days, metyrosine was injected IP at reduced indicated doses. Hydration of mice was supported by daily subcutaneous injection of 0.5 ml saline.

[2] = tested on: polymicrobial peritoneal sepsis induced by CLP; experiment: Cecal ligation and puncture (CLP) sepsis; assay type: in vivo, mouse (C57BL/6); settings: antibiotic alone, from 20 hours after CLP
Experimental: (§1) Cecal ligation and puncture (CLP) was performed as described elsewhere (Rittirsch et al., 2009 Nature Protocols, 4:31-6). Briefly, six-to-eight week old female C57BL/6 mice were anesthetized and following abdominal incision, the cecum was ligated at about 14 the distance from the luminal entry to its tip. The ligated cecum was punctured through and through with a 22 G needle at ½ and ¾ the distance from the luminal entry to its tip. A small amount of the cecal content was gently pushed out of the four openings into the peritoneum. Subsequently, the abdominal muscles were sutured and the skin was closed with two staples. Five hundred microliters of saline were immediately injected subcutaneously to the mice. For the groups treated with antibiotics, imipenem (Sigma) was injected subcutaneously at 25 mg/kg starting from 20 hours after CLP, with a schedule of twice a day on day one and once a day thereafter for 10 days. Human ANP (Sigma) was dissolved in saline, loaded in mini-osmotic pumps (ALZET) with a release rate of 12 μg/day and implanted subcutaneously in the back of mice 12 hours before the CLP, with pumps loaded with saline serving as controls. Metyrosine was freshly dissolved in PBS and injected IP at 60 mg/kg/day for three days before the CLP. Twenty minutes before the CLP, metyrosine was injected at 60 mg/kg IP into the right side. The control groups were injected with PBS. For the following 4 days, metyrosine was injected at 30 mg/kg/day IP into the right side. Hydration of mice was supported by daily subcutaneous injection of 0.5 ml saline.
as §1, with “CLP” for “Cecal ligation and puncture (CLP)”, “(see, e.g., Rittirsch” for “(Rittirsch”, “2008 Rev Immunol 8:776-787).” for “2009 Nature Protocols, 4:31-6).”, “6-8 weeks” for “six-to-eight week”, “¼” for “14”, “days.” for “days. Human ANP (Sigma) was dissolved in saline, loaded in mini-osmotic pumps (ALZET) with a release rate of 12 μg/day and implanted subcutaneously in the back of mice 12 hours before the CLP, with pumps loaded with saline serving as controls.”

[3] = tested on: C. novyi-NT therapy-induced toxicity in mice bearing large subcutaneous CT26 tumors; experiment: C. novyi-NT therapy of large subcutaneous CT26 tumors (therapy-induced toxicity); assay type: in vivo, mouse (BALB/c); settings: CT26 tumor-bearing mice injected with parental C. novyi-NT spores, with the indicated agent
Experimental: ANP concentrations in the supernatant of ANP-C. novyi-NT culture and in mouse plasma were measured by an Elisa kit from Ray Biotech (EIAR-ANP-1) that recognizes both human and mouse ANP. ANP in the supernatant of ANP-C. novyi-NT culture were shown biological activities as described elsewhere (Lofton et al., 1990 Biochem. Biophys. Res. Comm., 172:793-9). Briefly, bacterial supernatants were applied to cultured bovine aortic endothelial cells (BAOEC, Cell Applications Inc.) for 3 minutes. cGMP concentrations were then measured in BAOEC lysates by the Direct cGMP Elisa Kit from Enzo following the manufacture's instruction.
The colon cancer cell line CT26 was injected subcutaneously into the right flank of six to eight week old female Balb/C mice as described elsewhere (Qiao et al., 2011 Oncotarget, 2:59-68). Tumor sizes were measured with a caliper and calculated as ½*L*W*H as described elsewhere (Tomayko et al., 1989 Can. Chemother. Pharmacol., 24:148-54). When tumors reached 600-900 mm^3 after about two weeks, 12×10^6 spores of C. novyi-NT or ANP-C. novyi-NT at 3×10^6/μl were injected intratumorally into 4 central parts of the tumor with a 32 G Hamilton syringe needle. The bacteria typical germinated in the tumors within 24 hours, turning them necrotic. Hydration of the mice was supported by daily subcutaneous injections of […] saline. Human ANP (Sigma) was dissolved in saline, loaded in mini-osmotic pumps (ALZET) with a release rate of 12 μg/day and implanted subcutaneously in the back of mice 12 hours before the spore injection. Pumps loaded with saline served as controls. Metyrosine was dissolved in PBS and injected IP at 60 mg/kg/day for three days before the C. novyi injection to deplete catecholamines in storage. Two hours after the spore injection, 60 mg/kg of metyrosine was injected intraperitoneally (IP). For each of the next three days, IP injections of metyrosine at 30 mg/kg were administered. Control groups were injected with PBS at the same time points.
Blood samples were collected into tubes containing 5 mM EDTA and 4 mM sodium metabisulfite after puncturing the facial vein or (terminally) by cardiac puncture. Subsequently, the samples were centrifuged and the plasmas were stored at −80° C. prior to analysis. Catecholamines (dopamine, norepinephrine and epinephrine) were measured using the 3-CAT Research ELISA kit from Labor Diagnostika Nord GmbH/Rocky Mountain Diagnostics. Cytokines were measured using Luminex assays based on Millipore Mouse and Human Cytokine/Chemokine panels.
ANP concentrations in the supernatant of ANP-C. novyi-642 NT culture and in mouse plasma were measured with an Elisa kit from Ray Biotech (EIAR-ANP-1) that recognizes both human and mouse ANP. […] Briefly, bacterial supernatants were applied to cultured bovine aortic endothelial cells (BAOEC, Cell Applications Inc.) for 3 minutes. cGMP concentrations were then measured in BAOEC lysates by the Direct cGMP Elisa Kit from Enzo following the manufacture's instruction.
The colon cancer cell line CT26 was injected subcutaneously into the right flank of six to eight weeks old female Balb/C mice as described elsewhere (see, e.g., Qiao et al. 2011 Oncotarget 2:59-68). Tumor sizes were measured with a caliper and calculated as ½*L*W*H as described elsewhere (see, e.g., Tomayko et al. 1989 Cancer Chemother Pharmacol 24:148-154). When tumors reached 600-900 mm^3 after about two weeks, 12×10^6 spores of C. novyi-NT or ANP-C. novyi-NT at 3×10^6/μl were injected intratumorally into 4 central parts of the tumor with a 32 G Hamilton syringe needle. The bacteria typical germinated in the tumors within 24 hours, turning them necrotic. Hydration of the mice was supported by daily subcutaneous injections of 500 μl saline. Human ANP (Sigma) was dissolved in saline, loaded in mini-osmotic pumps (ALZET) with a release rate of 12 μg/day and implanted subcutaneously in the back of mice 12 hours before the spore injection. Pumps loaded with saline served as controls. […]

[4] = incubation in media for 24 hours at 37° C.

In the case of `C[C@@H]1C[C@@H]([C@H](O)CC2CC(=O)NC(=O)C2)C(=O)[C@@H](C)C1` [CHX, Cycloheximide], the “increase of catecholamines and cytokines (TNF-α, MIP-1α, IFN-γ, GM-CSF)” value [1] is reported as “greatly suppressed”.

In the case of `NC[C@H](O)c1ccc(O)c(O)c1` [norepinephrine], the “disease course (mortality, catecholamines, IL-6, TNF-α, MIP-2, KC) versus LPS only” value (LPS-injected BALB/c mice) is reported as “less pronounced”.

In the case of `C[C@@H](O)[C@H]1C(=O)N2C(C(=O)O)=C(SCCN=CN)C[C@H]12` [imipenem], the “mice that died after CLP” value [2] is reported as 88% and > 90%.

For `NCCc1ccc(O)c(O)c1` [dopamine], the “disease course (mortality, catecholamines, IL-6, TNF-α, MIP-2, KC) versus LPS only” value (LPS-injected BALB/c mice) was “absent”.

For `COC1(C2=NCCN2)COc2ccccc2O1` (stereo not shown) [RX 821002], the mortality (LPS-injected BALB/c mice) was “did not reduce mortality”.

For `COCCc1ccc(OCC(O)CNC(C)C)cc1` (stereo not shown) [metoprolol], the mortality (LPS-injected BALB/c mice) was “did not reduce mortality”.

With `Cc1ncc([N+](=O)[O-])n1CCO` [metronidazole] the “effect on survival (words)” value [3] was “did not protect animals from sepsis”.

With `Cc1ccc(OCC(O)C(C)NC(C)C)c2c1CCC2` (stereo not shown) [ICI 118551] the mortality (LPS-injected BALB/c mice) was “did not reduce mortality”.

In the case of `CNC[C@H](O)c1ccc(O)c(O)c1` [epinephrine, (−)-epinephrine], the “disease course (mortality, catecholamines, IL-6, TNF-α, MIP-2, KC) versus LPS only” value (LPS-injected BALB/c mice) is reported as “earlier onset and exacerbated disease course”, the animal survival (LPS-injected BALB/c mice; mouse, in vivo) is reported as “no effect on animal survival” and the cytokine release (LPS-injected BALB/c mice; mouse, in vivo) is reported as “moderately stimulate cytokine release”. For the same compound, the stability in media [4] was “all detectable epinephrine was degraded”.

For `COc1cc2nc(N3CCN(C(=O)c4ccco4)CC3)nc(N)c2cc1OC` [prazosin], the “production of catecholamines and cytokines” value (LPS-injected BALB/c mice; 24 hours after LPS, α1 blockade) was “suppressed the production of catecholamines and cytokines” and the mortality (LPS-injected BALB/c mice) was “substantially reduced mortality”.

For `Cc1ccc2nc(NCCN)c3ncc(C)n3c2c1` [BMS-345541], the “effect on survival (words)” value [3] was “no significant improvement in survival” and the “effect on survival (words)” value ([3]; listed as BMS345541) was “did not improve survival”.
